Experimental data from EP0589484A1, “1,2-Ethanediol derivative and salt thereof, process for producing the same, and cerebral function-improving agent comprising the same” (TOYAMA CHEMICAL CO., LTD., priority 1989, dated 1990).
Counter-ions that a name gives are not always drawn. Like-named read-outs stand apart in the source and are kept apart here.

Experiments:
ddY male mice = test: Acute toxicity; type: in vivo, mouse; settings: 50 mg/kg intravenously, group of 3 ddY male mice
Description: A test compound dissolved in physiological saline was intravenously administered to a group of 3 ddY male mice (5-6 weeks old) to examine the acute toxicity of the test compound.

ddY female mouse = test: Effect of test compound on hypoxia (antihypoxic activity); type: in vivo; settings: po, read-out: Antihypoxic activity (%)
Protocol: A test compound dissolved in physiological saline (100 mg/kg) was orally administered to a ddY female mouse (5-6 weeks old, each group consisting of 10 mice). After 1 (or 30 minutes*) hour from the administration, each mouse was placed in a 300-ml glass chamber, and a gas mixture consisting of 4% of oxygen and 96% of nitrogen was passed through the chamber at a rate of 5 liters/min. A time from the start of gas passing to the death of each mouse was measured.
To a control mice group was orally administered only physiological saline.
The antihypoxic activity of the test compound was calculated from the following formula: [formula]

acetylcholinesterase = molecular target: T1, acetylcholinesterase (Mus musculus, UniProt P21836); test: Inhibitory activity for acetylcholinesterase (method of Ellman et al.); type: biochemical; settings: final concentration of the test compound 10 µg/ml; mouse cerebral homogenate; read-out: Inhibition (%)
T1 construct: a mouse cerebral homogenate (as an acetylcholinesterase source); from tissue; host or cells: mouse cerebrum (homogenate)
Protocol: A test was conducted in accordance with the method of Ellman et al. [Biochem. Pharmacol., vol. 7, pp. 88-95, 1961].
That is, acetylthiocholine (as a substrate) was added to a phosphate buffer solution containing 5,5'-dithiobis-(2-nitrobenzoic acid) (DTNB), a test compound and a mouse cerebral homogenate (as an acetylcholinesterase source). The resulting mixture was incubated, and the amount of the resulting 5-thio-2-nitrobenzoic acid was photometrically measured at 412 nm.
The inhibitory activity for acetylcholinesterase of the test compound was expressed by the inhibition (%) when the final concentration of the test compound was 10 µg/ml.

[1] = 100 mg/kg orally, placed in chamber (4% oxygen, 96% nitrogen) after 1 hour from the administration, survival time relative to control
[2] = 0.5 h, 100 mg/kg orally, placed in chamber (4% oxygen, 96% nitrogen) after 30 minutes from the administration (values marked *), survival time relative to control

T1 sequence (P21836 32-614): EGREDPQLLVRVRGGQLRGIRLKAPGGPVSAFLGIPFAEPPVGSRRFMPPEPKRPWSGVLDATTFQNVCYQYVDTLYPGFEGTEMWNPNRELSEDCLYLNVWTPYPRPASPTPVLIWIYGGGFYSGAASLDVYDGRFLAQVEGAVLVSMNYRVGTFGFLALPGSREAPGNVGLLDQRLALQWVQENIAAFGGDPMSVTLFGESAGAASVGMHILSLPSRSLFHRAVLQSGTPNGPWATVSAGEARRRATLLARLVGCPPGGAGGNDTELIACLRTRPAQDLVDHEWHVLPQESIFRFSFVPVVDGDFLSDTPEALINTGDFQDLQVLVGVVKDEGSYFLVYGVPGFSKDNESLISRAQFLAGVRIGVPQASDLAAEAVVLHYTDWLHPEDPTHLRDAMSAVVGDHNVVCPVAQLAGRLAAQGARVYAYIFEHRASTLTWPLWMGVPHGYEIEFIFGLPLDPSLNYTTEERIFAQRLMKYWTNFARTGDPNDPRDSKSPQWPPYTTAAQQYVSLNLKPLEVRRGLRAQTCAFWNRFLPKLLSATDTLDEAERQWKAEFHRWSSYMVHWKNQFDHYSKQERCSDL

SMILES	Acute toxicity (ddY male mice)	response vs control in vivo at 100 mg/kg (ddY female mouse; [2]) [%]	further results
CN(C)CCOCC(O)c1cccc(F)c1.Cl (centres unmarked) [Compound No. 1, 2-[2-(N,N-dimethylamino)ethoxy]-1-(3-fluorophenyl)ethanol hydrochloride]	no death case	–	response vs control in vivo at 100 mg/kg (ddY female mouse; 1 h): 155%
CN(C)CCOCC(O)c1cccc(C(F)(F)F)c1.Cl (centres unmarked) [Compound No. 42, 2-[2-(N,N-dimethylamino)ethoxy]-1-(3-trifluoromethylphenyl)ethanol hydrochloride]	no death case	–	response vs control in vivo at 100 mg/kg (ddY female mouse; 1 h): 194%
CN(C)CCOCC(O)c1ccc(OCc2ccccc2)cc1 (centres unmarked) [Compound No. 48, 1-(4-benzyloxyphenyl)-2-[2-(N,N-dimethylamino)ethoxy]ethanol hydrochloride]	–	–	inhibition at 10 µg/mL (acetylcholinesterase): 51%; response vs control in vivo at 100 mg/kg (ddY female mouse; 1 h): 160%
CN(C)CCOCC(O)c1ccccc1 (centres unmarked) [compound 2]	no death case	–	response vs control in vivo at 100 mg/kg (ddY female mouse; [1]): 119%
CN(C)CCOC[C@H](O)c1ccccc1 [compound 3]	no death case	245	–
O=C1CCCN1CCOCC(O)c1ccccc1 (centres unmarked) [compound 9]	no death case	–	response vs control in vivo at 100 mg/kg (ddY female mouse; [1]): 113%
Cc1cccc(C(O)COCCN(C)C)c1.Cl (centres unmarked) [compound 15, 2-[2-(N,N-dimethylamino)ethoxy]-1-(3-methylphenyl)ethanol hydrochloride]	no death case	–	response vs control in vivo at 100 mg/kg (ddY female mouse; 0.5 h): 194%
Cc1ccc(C(O)COCCN(C)C)cc1 (centres unmarked) [compound 16]	no death case	–	response vs control in vivo at 100 mg/kg (ddY female mouse; [1]): 116%
CN(C)CCOCC(O)c1ccc(Cl)cc1 (centres unmarked) [compound 33]	no death case	224	–
CSc1ccc(C(O)COCCN(C)C)cc1 (centres unmarked) [compound 46]	no death case	150	–
OC(COCCC1CCN(Cc2ccccc2)CC1)c1ccccc1 (centres unmarked) [compound 60]	–	–	inhibition at 10 µg/mL (acetylcholinesterase): 71%
Cc1cc(C)cc(Oc2ccc(C(O)COCCN(C)C)cc2)c1 (centres unmarked) [compound 72]	–	–	inhibition at 10 µg/mL (acetylcholinesterase): 92%
CN(C)CCOCC(O)c1ccc(Oc2ccccc2)c(F)c1 (centres unmarked) [compound 73]	–	–	inhibition at 10 µg/mL (acetylcholinesterase): 89%
OC(COCCC1CCN(Cc2ccccc2)CC1)c1ccc(Oc2ccccc2)cc1 (centres unmarked) [compound 78]	–	–	inhibition at 10 µg/mL (acetylcholinesterase): 90%
CCN(CC)CCOCC(O)c1cccc(C)c1 (centres unmarked) [compound 90]	–	–	inhibition at 10 µg/mL (acetylcholinesterase): 52%
CN(C)CCOC[C@H](O)c1ccc(OCc2ccccc2)cc1 [compound 103]	–	–	inhibition at 10 µg/mL (acetylcholinesterase): 36%
OC(COC1CCN(Cc2ccccc2)CC1)c1ccccc1 (centres unmarked) [compound 113, 2-(1-benzylpiperidin-4-yloxy)-1-phenylethanol hydrochloride]	–	–	inhibition at 10 µg/mL (acetylcholinesterase): 45%
Cn1cnc(COCC(O)c2ccccc2)c1 (centres unmarked) [compound 119]	no death case	175	–
OC(COCc1cccnc1)c1ccccc1 (centres unmarked) [compound 120]	no death case	162	–

SMILES	Acute toxicity (ddY male mice)	response vs control in vivo at 100 mg/kg (ddY female mouse; [2]) [%]	further results
OC(COCc1cccnc1)c1cccc(Cl)c1 (centres unmarked) [compound 126]	no death case	172	–
OC(COCc1c[nH]cn1)c1ccccc1 (centres unmarked) [compound 132]	no death case	133	–
OC(COCC1CNCCO1)c1ccccc1 (centres unmarked) [compound 151, 1-phenyl-2-[(morpholin-2-yl)methoxy]ethanol]	no death case	–	response vs control in vivo at 100 mg/kg (ddY female mouse; [1]): 182%
OC(COCCN1CCc2ccccc2C1)c1ccccc1 (centres unmarked) [compound 165]	–	–	inhibition at 10 µg/mL (acetylcholinesterase): 24%
Cc1cccc(C(O)COCCC2CCNCC2)c1 (centres unmarked) [compound 176]	no death case	–	–
CC(=O)OC(COCCN1CCOCC1)c1cccc(C)c1 (centres unmarked) [compound 178, 1-acetoxy-1-(3-methylphenyl)-2-[2-(morpholin-4-yl)ethoxy]ethane]	no death case	–	–
CN(C)CCOCC(O)c1ccc2c(c1)OCCO2 (centres unmarked) [compound 194]	no death case	–	–
OC(COCCNC1CC1)c1ccccc1 (centres unmarked) [compound 209]	no death case	148	–
O[C@@H](COC[C@@H]1CNCCO1)c1ccccc1 [compound 219, (1R,2'S)-1-phenyl-2-[(morpholin-2-yl)methoxy]ethanol maleate]	no death case	222	–
O[C@H](COC[C@H]1CNCCO1)c1ccccc1 [compound 220, (1S,2'R)-1-phenyl-2-[(morpholin-2-yl)methoxy]ethanol maleate]	no death case	183	–
O[C@@H](COC[C@H]1CNCCO1)c1ccccc1 [compound 221, (1R,2'R)-1-phenyl-2-[(morpholin-2-yl)methoxy]ethanol oxalate]	no death case	183	–
CN(C)CCOCC(O)c1ccc2ccccc2c1.Cl (centres unmarked) [compound 229, 2-[2-(N,N-dimethylamino)ethoxy]-1-(2-naphthyl)ethanol hydrochloride]	no death case	–	response vs control in vivo at 100 mg/kg (ddY female mouse; 1 h): 123%
CN(C)CCCOCC(O)c1cccc2ccccc12 (centres unmarked) [compound 233]	–	–	inhibition at 10 µg/mL (acetylcholinesterase): 59%
Cc1ccc2cc(C(O)COCCN(C)C)ccc2c1 (centres unmarked) [compound 235]	no death case	–	–
COc1ccc2cc(C(O)COCCN(C)C)ccc2c1 (centres unmarked) [compound 236]	no death case	–	response vs control in vivo at 100 mg/kg (ddY female mouse; [1]): 177%
CN(CCOCC(O)c1cccc2ccccc12)Cc1ccccc1 (centres unmarked) [compound 241]	–	–	inhibition at 10 µg/mL (acetylcholinesterase): 31%
CN(C)CCOCC(O)c1ccc2c(c1)CCCC2 (centres unmarked) [compound 251]	no death case	186	–
OC(COCC1CNCCO1)c1ccc2ccccc2c1 (centres unmarked) [compound 256, 1-(2-naphthyl)-2-[(morpholin-2-yl)methoxy]ethanol 1/2 fumarate]	no death case	–	response vs control in vivo at 100 mg/kg (ddY female mouse; [1]): 154%
OC(COCc1cnc[nH]1)c1cccc2ccccc12 (centres unmarked) [compound 279]	no death case	–	response vs control in vivo at 100 mg/kg (ddY female mouse; [1]): 198%

SMILES	Acute toxicity (ddY male mice)	response vs control in vivo at 100 mg/kg (ddY female mouse; [2]) [%]	further results
Cn1cncc1COCC(O)c1cccc2ccccc12 (centres unmarked) [compound 283, 2-(1-methylimidazol-5-yl)methoxy-1-(1-naphthyl)ethanol]	no death case	–	response vs control in vivo at 100 mg/kg (ddY female mouse; [1]): 183%
CN(C)CCOCC(O)c1ccc2sccc2c1.Cl (centres unmarked) [compound 312, 1-(benzo[b]thiophen-5-yl)-2-[2-(N,N-dimethylamino)ethoxy]ethanol hydrochloride]	no death case	–	response vs control in vivo at 100 mg/kg (ddY female mouse; 0.5 h): 221%
CN(C)CCOCC(O)c1cccs1 (centres unmarked) [compound 313]	no death case	154	–
CN(C)CCOCC(O)c1cccnc1 (centres unmarked) [compound 315]	no death case	–	–
CN(C)CCOCC(O)c1ccoc1 (centres unmarked) [compound 316]	no death case	–	–
CN(C)CCOCC(O)c1ccc2c(c1)CC(=O)N2 (centres unmarked) [compound 322]	–	–	inhibition at 10 µg/mL (acetylcholinesterase): 20%
CN(C)CCOCC(O)c1ccc2occc2c1 (centres unmarked) [compound 325]	no death case	217	–
OC(COCCN1CCOCC1)c1ccc2sccc2c1 (centres unmarked) [compound 327]	no death case	160	–
CN(C)CCOCC(O)c1ccc2c(c1)CCN2 (centres unmarked) [compound 329]	–	–	inhibition at 10 µg/mL (acetylcholinesterase): 45%
CN(C)CCCCOCC(O)c1ccc2sccc2c1 (centres unmarked) [compound 337]	no death case	309	–
O=C1CCc2cc(C(O)COCc3cccnc3)ccc2N1 (centres unmarked) [compound 341]	–	–	inhibition at 10 µg/mL (acetylcholinesterase): 61%
OC(COCCN1CCN(c2ncccn2)CC1)c1ccc2sccc2c1 (centres unmarked) [compound 352]	–	–	inhibition at 10 µg/mL (acetylcholinesterase): 26%
Cl.O=C(NCCOCC(O)c1ccc2sccc2c1)c1cccnc1 (centres unmarked) [compound 360, 1-(benzo[b]thiophen-5-yl)-2-[2-(nicotinoylamino)ethoxy]ethanol hydrochloride]	no death case	–	–
CN(C)CCOCC(O)c1ccc(Cl)s1 (centres unmarked) [compound 368]	no death case	135	–
NCCOCC(O)c1ccc2occc2c1 (centres unmarked) [compound 369]	no death case	143	–
CN(C)CCOCC(O)c1nccn1Cc1ccccc1 (centres unmarked) [compound 372]	–	–	inhibition at 10 µg/mL (acetylcholinesterase): 30%
CNCCOCC(O)c1cc2ccccc2s1 (centres unmarked) [compound 375]	no death case	156	–
Cc1ccc2sc(C(O)COCCN(C)C)cc2c1 (centres unmarked) [compound 385]	no death case	161	–
CN(C)CCCOCC(O)c1ccc2occc2c1 (centres unmarked) [compound 390]	no death case	248	–
